The values below come from US20250122166A1, “SUBSTITUTED N-((2-(2,6-DIOXOPIPERIDIN-3-YL)-1-OXOISOINDOLIN-4-YL)METHYL)BENZAMIDE ANALOGS AS MODULATORS OF CEREBLON PROTEIN” (ST. JUDE CHILDREN'S RESEARCH HOSPITAL, INC., priority 2021, published 2025).

Structures are written as SMILES. pEC50, pIC50: −log10 of the molar value.

The test system of one experiment is neosubstrate degradation. The settings on record: relative to lenalidomide; cited from earlier work.
A further experiment concerns MOLM-13 cells. The experiment can be described thus: Cell proliferation assay (Cell Titer-Glo, 72 h). In kind it is cell-based. The settings on record: Homo sapiens, 72 h incubation, * = cytostatic 50%. On the procedure: MOLM-13 cell line was purchased from the Leibniz Institute DSMZ (ACC 554). The cells were cultured according to recommendations in RPMI 1640 cell culture media with 20% FBS (DSMZ). Exponentially growing MOLM-13 cells were plated at 1250 cells per well in Corning 8804BC white 384-well assay plates and incubated overnight at 37° C. in a humidified 5% CO2 incubator. Compounds were transferred to the assay plate from a dose-response plate using a Pintool on a Biomek FXP Laboratory Automation Workstation (Beckman Coulter). Cytotoxicity was determined following 72 hours of incubation using Promega Cell Titer Glo reagent according to the manufacturer's recommendation. Luminescence was measured on an Envision plate reader (Perkin-Elmer).
Compounds were screened in human cancer cell lines and each cell line was cultured in the complete medium recommended by the vendor and seeded in Corning 8804BC white 384-well assay plates at density of 1250 cells per well for MOLM-13 cells. After overnight incubation at 37° C. in a humidified 5% CO2 incubator, cells were treated with compounds in dose-response format using a Pintool on a Biomek FXP Laboratory Automation Workstation (Beckman Coulter). After 72h incubation, cell proliferation was assessed using Cell Titer-Glo (CTG) luminescent cell viability assay (Promega) according to the manufacturer's instruction. Luminescence signal was measured using an Envision plate reader (Perkin-Elmer).
On the technique in general: ATP-based viability assays read luminescence as a measure of living cells.

The target in another experiment is 6XHis-CRBN-DDB1 protein (Homo sapiens (Human), UniProt Q96SW2). Nature of the experiment: CRBN fluorescence polarization assay (competitive, Cy5-O-Len probe). In kind it is binding. Particulars: 6XHis-CRBN-DDB1 200 nM, Cy5-O-Len probe 30 nM, 1 hour; mean of three determinations; read-out: CRBN FP (IC50). On the procedure:
In this competitive fluorescent polarization assay Cy5 conjugated lenalidomide analog (Cy5—O-Len)^1 was used as a fluorescent probe. 6XHis-CRBN-DDB1 protein (200 nM) and Cy5—O-Len probe (30 nM) were combined in 20 mM HEPES pH 7, 150 mM NaCl, 0.005% Tween-20 assay buffer. 20 μL of this assay cocktail was dispensed into wells of Corning 3821 black 384-well plates. Compounds were transferred to the assay plate from a dose-response plate using a Pintool on a Biomek FXP Laboratory Automation Workstation (Beckman Coulter). The plates were incubated in the dark for 1 hour at room temperature and then read on an Envision plate reader (PerkinElmer, Massachusetts, USA). IC50 values were determined using a proprietary software RISE (Robust Investigation of Screening Experiments), developed in house on the Pipeline Pilot platform (Biovia, v. 17.2.0). Data represent the mean of three independent determinations.
In general terms: Polarisation of emitted light reports the rotation of a fluorescent probe.

Regarding `O=C1CC[C@H](N2Cc3c(OCc4ccc(CN5CCOCC5)cc4)cccc3C2=O)C(=O)N1` [CC-220], in the experiment with neosubstrate degradation, the “fold more potent in cells than lenalidomide” value was 10 fold.
What is called pEC50 is the negative decadic logarithm of the EC50, by convention in mol/L. The low end stands for a large EC50, the high end for a small EC50. Usually pIC50 stands for the IC50 on a negative log10 scale, so that one unit is a factor of ten. Consider `O=C1CCC(N2Cc3c(CNC(=O)c4ccccc4Cl)cccc3C2=O)C(=O)N1` (stereo not shown) [Compound 46, 2-chloro-N-((2-(2,6-dioxopiperidin-3-yl)-1-oxoisoindolin-4-yl)methyl)benzamide], for which the pEC50 in the experiment with MOLM-13 cells was greater than 6.00. Moreover, the negative-log IC50 (pIC50) on 6XHis-CRBN-DDB1 protein is 5.00 to 6.00.
On to `O=C1CCC(N2Cc3c(CNC(=O)c4cccc(F)c4)cccc3C2=O)C(=O)N1` (stereo not shown) [Compound 9, N-((2-(2,6-dioxopiperidin-3-yl)-1-oxoisoindolin-4-yl)methyl)-3-fluorobenzamide], for which the pEC50 in the experiment with MOLM-13 cells was greater than 6.00. In addition, the pIC50 on 6XHis-CRBN-DDB1 protein is 5.00 to 6.00.
The molecule `O=C1CCC(N2Cc3c(CNC(=O)c4cccc(Cl)c4)cccc3C2=O)C(=O)N1` (stereo not shown) [Compound 3, 3-chloro-N-((2-(2,6-dioxopiperidin-3-yl)-1-oxoisoindolin-4-yl)methyl)benzamide] gave a pEC50 in the experiment on MOLM-13 cells greater than 6.00. For the same molecule, the negative logarithm of the IC50 (pIC50) at 6XHis-CRBN-DDB1 protein was greater than 6.00.
For the molecule `O=C1CCC(N2Cc3c(CNC(=O)c4ccc(C(F)(F)F)c(F)c4)cccc3C2=O)C(=O)N1` (stereo not shown) [Compound 16, N-((2-(2,6-dioxopiperidin-3-yl)-1-oxoisoindolin-4-yl)methyl)-3-fluoro-4-(trifluoromethyl)benzamide], in the experiment with MOLM-13 cells, the pEC50 was greater than 6.00. In addition, on 6XHis-CRBN-DDB1 protein, the pIC50 is 5.00 to 6.00.
As to `O=C(Cc1ccc(O)cc1)NCc1cccc2c1CN(C1CCC(=O)NC1=O)C2=O` (stereo not shown) [Compound 40, N-((2-(2,6-dioxopiperidin-3-yl)-1-oxoisoindolin-4-yl)methyl)-2-(4-hydroxyphenyl)acetamide], the negative-log EC50 (pEC50) in the experiment with MOLM-13 cells was greater than 6.00. At 6XHis-CRBN-DDB1 protein, the pIC50 is greater than 6.00.
In turn, `O=C1CCC(N2Cc3c(CNC(=O)c4ccc5nc[nH]c5c4)cccc3C2=O)C(=O)N1` (stereo not shown) [Compound 42, N-((2-(2,6-dioxopiperidin-3-yl)-1-oxoisoindolin-4-yl)methyl)-1H-benzo[d]imidazole-6-carboxamide] showed a pEC50 in the experiment on MOLM-13 cells of 5.00 to 6.00. Besides, the negative-log IC50 (pIC50) at 6XHis-CRBN-DDB1 protein is 5.00 to 6.00.
With `CCCc1ccc(C(=O)NCc2cccc3c2CN(C2CCC(=O)NC2=O)C3=O)cc1` (stereo not shown) [Compound 30, N-((2-(2,6-dioxopiperidin-3-yl)-1-oxoisoindolin-4-yl)methyl)-4-propylbenzamide], the negative logarithm of the EC50 (pEC50) in the experiment with MOLM-13 cells was greater than 6.00. The negative logarithm of the IC50 (pIC50) on 6XHis-CRBN-DDB1 protein was greater than 6.00.
As for `O=C1CCC(N2Cc3c(CNC(=O)c4ccccc4F)cccc3C2=O)C(=O)N1` (stereo not shown) [Compound 31, N-((2-(2,6-dioxopiperidin-3-yl)-1-oxoisoindolin-4-yl)methyl)-2-fluorobenzamide], the pEC50 with MOLM-13 cells is less than 5.00. The negative logarithm of the IC50 (pIC50) at 6XHis-CRBN-DDB1 protein was 5.00 to 6.00.
In turn, `O=C1CCC(N2Cc3c(CNC(=O)c4ccccc4C(F)(F)F)cccc3C2=O)C(=O)N1` (stereo not shown) [Compound 4, N-((2-(2,6-dioxopiperidin-3-yl)-1-oxoisoindolin-4-yl)methyl)-2-(trifluoromethyl)benzamide] showed a negative logarithm of the EC50 (pEC50) in the experiment on MOLM-13 cells of less than 5.00. Besides, at 6XHis-CRBN-DDB1 protein, the negative logarithm of the IC50 (pIC50) was 5.00 to 6.00.
